Source: patent US8932614B2, “Incorporation of particulate ceragenins in polymers” (priority 2011, dated 2015)

Experiments:
[1] = test system: MRSA; experiment: Coated titanium bone plugs in broth challenged with MRSA (planktonic, FIG. 4); format: cell-based, methicillin-resistant Staphylococcus aureus; conditions: for viable bacteria per tube: 4 and 8 hour time points, challenge ~5×10^8 CFU MRSA; for viable bacteria: 24 hour time point
Experimental: To confirm that medical devices coated with the ceragenin-containing composites described herein are able to kill bacteria, various groups of titanium bone plugs were prepared. The titanium bone plugs were either uncoated, coated with MED-6607 ceragenin-containing silicone polymer prepared as described above, or with MED-6607 silicone polymer only. In the groups of bone plugs that were coated with ceragenin-containing silicone polymer, the silicone either contained 16 wt %, 18 wt %, or 20 wt % ceragenin. Specifically, the groups of bone plugs were as follows: • 0%—a titanium bone plug coated with silicone polymer with no ceragenin • 16%—a titanium bone plug coated with silicone polymer containing 16% CSA-13 (w/w) • 18%—a titanium bone plug coated with silicone polymer containing 18% CSA-13 (w/w) • […] • titanium—a titanium bone plug with no coating
The bone plugs were placed into broth (e.g., 30 ml of broth) and challenged with ˜5×10^8 colony forming units (CFU) of MRSA. In addition, a broth/MRSA-only control was prepared. Samples were withdrawn from each of the tubes at 0, 1, 2, 4, 8, 24, and 48 hours. The data for the 0, 1, 2, 4, 8, and 24 hour data points are graphed in FIG. 4.
In contrast, the 16% tubes each contained about 1×10^3 CFU and the 20% tubes each contained about 5×10^2 CFU.

[2] = test system: biofilms; experiment: Coated bone plates implanted into animals and challenged with biofilms; format: in vivo, sheep; conditions: CSA-13 coated stainless steel plates
Excerpt: Similar results were obtained in vivo when bone plates were coated with ceragenin-containing composites and were compared with bone plates coated with polymer only, then implanted into animals and challenged with biofilms. […] In contrast, 100% of animals who received polymer-only bone plates developed infection when they were infected with biofilms and bacterial loads in and around the infection site exceeded 10^6 bacterial cells per gram of tissue, which is well above the standard for infection.
In addition, histological sections were compared from animals receiving bone plates. […] Two sheep in Group 1 were euthanized after one week due to the severity of their infections. […] And while inflammation was present in sheep from all groups, with the highest level of inflammation being present in Group 1 sheep, this is a normal response to surgical trauma.

## CCCCCCCCNCCC[C@@H](C)[C@H]1CC[C@H]2[C@@H]3[C@H](OCCCN)C[C@@H]4C[C@H](OCCCN)CC[C@]4(C)[C@H]3C[C@H](OCCCN)[C@]12C [CSA-13]
[1]; bone plug coated with silicone containing 16% CSA-13 (w/w)
  viable bacteria per tube: about 1×10^3 CFU
[1]; bone plug coated with silicone containing 16% CSA-13
  viable bacteria: considerable numbers of viable bacteria
[1]; bone plug coated with silicone containing 18% CSA-13 (w/w)
  viable bacteria per tube: essentially no viable bacterial
[1]; bone plug coated with silicone containing 20% CSA-13 (w/w)
  viable bacteria per tube: about 5×10^2 CFU
[1]; bone plug coated with silicone containing 20% CSA-13, compared with 18%
  viable bacteria: caught up to the 18
[1]; tubes containing a bone plug with CSA-13 (16%, 18% and 20%), 0-24 h
  numbers of viable bacteria (CFU/ml) over time: dropped dramatically
[2]; Group 2 (n=9): biofilm
  sheep showing signs of osteomyelitis (histology): none
[2]; Group 4 (n=8): no biofilm
  sheep showing signs of osteomyelitis (histology): none
